For one assay, the target named is T1, Syk (Homo sapiens, UniProt P43405).
T1 construct: Flag; made in house
Description: Syk substrate phosphorylation, Streptavidin FlashPlate. It is filed as biochemical. The conditions noted are these: 7.77 nM Flag-tagged Syk, PGT-Biotin substrate, 33P-ATP. An excerpt:
• Assay Name: Spleen Tyrosine (Y) Kinase • Short Name: Syk • Assay Format: Substrate Phosphorylation • Detection Format: Streptavidin FlashPlate • Modulation: Inhibition
Streptavidin FlashPlate Plus microplates from PerkinElmer Life Sciences™ are designed for in-plate radiometric assays. The interior of each well is permanently coated with a thin layer of polystyrene-based scintillant followed by covalent binding of Streptavidin. These plates are suitable for a wide variety of assay applications which utilize biotinylated capture molecules. Poly (Glu,Tyr) 4:1 (PGT) is a random copolymer that can act as a substrate for tyrosine-specific protein kinases. The assay measures the phosphorylation of PGT-Biotin substrate by Syk. The enzyme transfers the [γ^33P]-phosphate from [γ^33P]-ATP to the polymeric substrate. The assay was run in solution in a non-binding 384-well plate. After stopping the reaction using phosphoric acid, the reaction mixture was transferred to a 384-well Streptavidin Flashplate. The biotinylated substrate was captured onto the plate and other reagents including hot ATP were washed away. Each well was then counted for radioactivity.
The enzyme reaction was run in a 384-well non-binding plate. […] Radioactivity was counted on a Top Count™ scintillation counter. […]

In another assay the test system is DLCL-2. Description: Viability assay of liquid tumor cell lines (MTS). It is filed as cell-based. Conditions: DLCL-2 (B-NHL), N = 4. As to the method: (§1) This method is to determine the viability of a liquid tumor cell line following treatment with a test compound. Tumor cells are maintained in suspension at log phase growth. On the day of use, cells are resuspended to a density of 0.05 to 0.1 million/ml and cells are incubated in 96 well plate with the test compounds for 96 hours. Viability of cells was measured by incubating cells with Promega's MTS reagent. The viability of the cell is proportional to the change in absorbance at 490 nm. By comparing the absorbance between control and compound-treated cells, the impact of the test compounds on the cell viability is determined as a percent of the control cell viability.
(§2) Harvest cells in complete RPMI from log-phase cultures at densities of approximately 0.3-0.7 million/ml. Count cells and adjust to 0.1 million/ml in phenol red free cRPMI (For fast growing cells with doubling time of equal or less than 24 hours, e.g. K562, use 0.05 million/ml instead to avoid over-growing).
(§3) Transfer triplicates of 100 μl of cells to the wells of 96-well clear plates for a total of 10000 cells/well. Note that each well already contains 10 μl of 10× concentrated test compound prepared as above.
(§4) Incubate cells for 72-96 hours at 37° C. in a tissue culture incubator containing 5% CO2.
(§5) 1. Thaw the Promega's MTS reagent and add 20 ul to each well with a repeat pipetor.
(§6) 4. Incubate at 370 C until the absorbance at 490 nm for the control cells is >1.5.
(§7) 5. Calculate the averaged compound-treated cell data as a percent of the averaged control cell data as follows: (Compound-treated value/control value)*100=% of control value Results: […]

In the next assay the test system is DOHH-2. Description: Viability assay of liquid tumor cell lines (MTS). It is filed as cell-based. Conditions: DOHH-2 (B-NHL), N = 4. As to the method: as §1, §2, §3, §4, §5, §6, §7
The test system of another assay is Granta-519. The assay can be described thus: Viability assay of liquid tumor cell lines (MTS). It is filed as cell-based. The conditions noted are these: Granta-519 (MCL), N = 4. The procedure: as §1, §2, §3, §4, §5, §6, §7
For another assay, the system named is K562. Description: Viability assay of liquid tumor cell lines (MTS). It is filed as cell-based. The conditions noted are these: K562 (CML), N = 4. The procedure:
as §1, §2, §3, §4, §5, §6, §7

For the next assay, the system named is KG-1. The assay can be described thus: Viability assay of liquid tumor cell lines (MTS). It is filed as cell-based. Conditions: KG-1 (AML), N = 4. As to the method:
as §1, §2, §3, §4, §5, §6, §7

The next assay has as its system L-363. The assay can be described thus: Viability assay of liquid tumor cell lines (MTS). Conditions: L-363 (MM), N = 4. The format is cell-based. The procedure: as §1, §2, §3, §4, §5, §6, §7
A further assay relates to ML-2. Description: Viability assay of liquid tumor cell lines (MTS). The conditions noted are these: ML-2 (AML), N = 4. The format is cell-based. As to the method: as §1, §2, §3, §4, §5, §6, §7

Structures are written as SMILES. pIC50: −log10 of the molar value.

For the compound `CCc1c(-c2ccc(C(C)(C)O)cc2)[nH]c2nccnc12` [compound of Formula I, 2-[4-(7-Ethyl-5H-pyrrolo[2,3-b]pyrazin-6-yl)-phenyl]-propan-2-ol], the pIC50 on Syk is 8.77; with DOHH-2 (Homo sapiens, MTS assay), 5.35; in the assay with Granta-519 (Homo sapiens, MTS assay), 5.47; in the assay with KG-1 (Homo sapiens, MTS assay) it was 5.72; in the assay with L-363 (Homo sapiens, MTS assay), 5.26; in the assay with ML-2 (Homo sapiens, MTS assay) it was under 5.00. Moreover, the “% Inhibition at max. conc. (10 uM)” value with DLCL-2 stood at 0%; with DOHH-2 (10 uM) it was 75%; in the assay with Granta-519 (10 uM), 67%; with K562 it was 21%; in the assay with KG-1 (10 uM), 91%; in the assay on L-363 (10 uM), 61%. In the assay with ML-2 (10 uM), the “% Inhibition at max. conc. (10 uM)” value was determined as 28%.

Source of the values: patent publication US8658649B2, “Kinase inhibitor” (Sanofi, priority 2006, dated 2014).
